Measured values reported in US20250312462A1, “PAK1 DEGRADERS AND METHODS OF USE THEREOF” (INSTITUTE FOR CANCER RESEARCH D/B/A THE RESEARCH INSTITUTE …, priority 2022, published 2025).

Legend:
ERK = ERK phosphorylation in OVCAR3 and MCF7 cells, immunoblot; type: cell-based; conditions: 10 nM, 24 hours
Method: FIG. 3A is a series of Western blots showing OVCAR3 and MCF7 cells that were treated for 24 hours with DMSO, 10 nM BJG-05-039, or NVS-PAK1-1 as indicated. MEK and ERK phosphorylation was assessed by immunoblot with the indicated phosphorylation-specific antibodies. FIG. 3B is a Western blot showing MCF7 cells that were stably transduced with a doxycycline-regulated shRNA against PAK1. shRNA expression was induced by the indicated amounts of doxycycline and immunoblots were performed using cell lysates 24 hours post doxycycline addition. FIG. 3C is a Western blot showing MCF7 cells that were treated with vehicle or […] doxycycline. Immunoblots were performed using cell lysates 24 hours post doxycycline addition.
Cells were washed once in PBS and lysed in RIPA buffer (50 mM Tris-HCl, 150 mM NaCl, 0.25% (w/v) sodium deoxycholate, 1% (w/v) NP-40, pH 7.5) containing protease inhibitor cocktail (Roche) and phosphatase inhibitor cocktail (Roche) for 30 minutes on ice. […]
In certain cell lines, PAK1 has well-characterized functions in regulating proliferative signaling. […] As a readout for anti-PAK activity, phosphorylation of MEK1 at S298 was assessed, a direct target site for Group A PAKs (Coles, et al. (2002) Oncogene 21:2236-2244; Slack-Davis, et al. (2003) J. Cell. Biol., 162:281-291), as well as phosphorylation of the downstream target of MEK, ERK. […]

GSK3A = GSK3A (Homo sapiens, UniProt P49840); assay: KINOMEscan; conditions: read-out: Percent Control
Method: (§1) The kinase engagement assay (KINOMEscan®) was performed by DiscoverX assessing binding abilities toward a set of kinases.

CAMK2G = CAMK2G (Homo sapiens, UniProt Q13555); assay: KINOMEscan; conditions: read-out: Percent Control
Method: as §1

DRAK1 = DRAK1 (Homo sapiens, UniProt Q9UEE5); assay: KINOMEscan; conditions: read-out: Percent Control
DRAK1, sequence (Q9UEE5 whole entry): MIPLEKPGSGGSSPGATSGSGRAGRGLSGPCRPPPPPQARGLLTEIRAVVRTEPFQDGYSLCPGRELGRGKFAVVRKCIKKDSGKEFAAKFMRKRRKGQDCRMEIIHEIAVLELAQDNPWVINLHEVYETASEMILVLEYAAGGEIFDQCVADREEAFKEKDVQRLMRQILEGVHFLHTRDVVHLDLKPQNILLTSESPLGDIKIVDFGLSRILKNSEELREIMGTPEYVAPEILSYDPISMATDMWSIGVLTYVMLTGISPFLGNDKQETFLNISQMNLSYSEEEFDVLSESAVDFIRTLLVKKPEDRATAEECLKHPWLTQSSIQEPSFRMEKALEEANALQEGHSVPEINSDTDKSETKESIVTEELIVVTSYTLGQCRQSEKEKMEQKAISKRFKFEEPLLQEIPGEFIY
Method: as §1

CDK2 = CDK2 (Homo sapiens, UniProt P24941); assay: KINOMEscan; conditions: read-out: Percent Control
Method: as §1

EGFR(L858R) = EGFR(L858R) (Homo sapiens, UniProt P00533, L858R); assay: KINOMEscan; conditions: read-out: Percent Control
EGFR(L858R), sequence (P00533 25-1210 L858R): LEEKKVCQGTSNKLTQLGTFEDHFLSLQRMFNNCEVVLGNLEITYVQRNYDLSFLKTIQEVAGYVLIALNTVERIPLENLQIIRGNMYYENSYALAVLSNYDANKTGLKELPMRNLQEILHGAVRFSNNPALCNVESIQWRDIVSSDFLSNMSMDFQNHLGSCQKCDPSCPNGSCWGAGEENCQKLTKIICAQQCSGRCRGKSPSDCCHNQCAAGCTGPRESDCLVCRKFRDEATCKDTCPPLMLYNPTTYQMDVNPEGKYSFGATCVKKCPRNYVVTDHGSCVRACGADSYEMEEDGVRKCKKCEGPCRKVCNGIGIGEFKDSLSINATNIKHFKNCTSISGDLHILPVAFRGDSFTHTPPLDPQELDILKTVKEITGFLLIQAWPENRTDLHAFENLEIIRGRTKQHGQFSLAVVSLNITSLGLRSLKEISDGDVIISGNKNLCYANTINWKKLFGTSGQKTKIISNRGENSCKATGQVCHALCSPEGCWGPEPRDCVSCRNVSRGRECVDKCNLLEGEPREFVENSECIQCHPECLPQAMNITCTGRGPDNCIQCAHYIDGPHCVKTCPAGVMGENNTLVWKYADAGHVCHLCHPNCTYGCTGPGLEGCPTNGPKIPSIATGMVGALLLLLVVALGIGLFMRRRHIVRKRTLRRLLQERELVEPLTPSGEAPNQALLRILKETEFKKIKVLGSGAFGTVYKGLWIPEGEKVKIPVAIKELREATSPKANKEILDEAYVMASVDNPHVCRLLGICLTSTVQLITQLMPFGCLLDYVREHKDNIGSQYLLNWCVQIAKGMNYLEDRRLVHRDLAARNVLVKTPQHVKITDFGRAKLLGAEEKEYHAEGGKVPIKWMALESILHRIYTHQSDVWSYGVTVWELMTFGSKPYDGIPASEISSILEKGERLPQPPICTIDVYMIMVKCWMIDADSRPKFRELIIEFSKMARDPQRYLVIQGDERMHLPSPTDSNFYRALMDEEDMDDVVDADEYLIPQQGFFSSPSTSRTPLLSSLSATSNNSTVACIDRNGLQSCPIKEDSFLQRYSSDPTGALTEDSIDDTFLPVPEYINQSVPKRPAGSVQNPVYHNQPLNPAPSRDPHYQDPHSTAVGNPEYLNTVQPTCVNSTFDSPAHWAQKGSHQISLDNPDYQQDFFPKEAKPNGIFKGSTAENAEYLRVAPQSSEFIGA
Method: as §1

SBK1 = SBK1 (Homo sapiens, UniProt Q52WX2); assay: KINOMEscan; conditions: read-out: Percent Control
SBK1, sequence (Q52WX2 whole entry): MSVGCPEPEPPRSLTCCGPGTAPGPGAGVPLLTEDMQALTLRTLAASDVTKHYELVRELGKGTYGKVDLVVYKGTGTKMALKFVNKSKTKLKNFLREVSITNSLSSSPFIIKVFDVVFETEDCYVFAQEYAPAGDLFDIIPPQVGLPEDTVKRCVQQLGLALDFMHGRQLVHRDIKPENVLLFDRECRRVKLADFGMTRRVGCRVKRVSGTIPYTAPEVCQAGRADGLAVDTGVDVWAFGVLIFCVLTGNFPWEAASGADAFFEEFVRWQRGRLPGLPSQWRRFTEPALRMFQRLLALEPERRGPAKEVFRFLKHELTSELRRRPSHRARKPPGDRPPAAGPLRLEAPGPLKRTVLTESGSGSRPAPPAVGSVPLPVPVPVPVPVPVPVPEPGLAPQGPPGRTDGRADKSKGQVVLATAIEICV
Method: as §1

CDC2L2 = CDC2L2 (Homo sapiens, UniProt Q9UQ88); assay: KINOMEscan; conditions: read-out: Percent Control
Method: as §1

PYK2 = PYK2 (Homo sapiens, UniProt Q14289); assay: KINOMEscan; conditions: read-out: Percent Control
PYK2, sequence (Q14289 whole entry): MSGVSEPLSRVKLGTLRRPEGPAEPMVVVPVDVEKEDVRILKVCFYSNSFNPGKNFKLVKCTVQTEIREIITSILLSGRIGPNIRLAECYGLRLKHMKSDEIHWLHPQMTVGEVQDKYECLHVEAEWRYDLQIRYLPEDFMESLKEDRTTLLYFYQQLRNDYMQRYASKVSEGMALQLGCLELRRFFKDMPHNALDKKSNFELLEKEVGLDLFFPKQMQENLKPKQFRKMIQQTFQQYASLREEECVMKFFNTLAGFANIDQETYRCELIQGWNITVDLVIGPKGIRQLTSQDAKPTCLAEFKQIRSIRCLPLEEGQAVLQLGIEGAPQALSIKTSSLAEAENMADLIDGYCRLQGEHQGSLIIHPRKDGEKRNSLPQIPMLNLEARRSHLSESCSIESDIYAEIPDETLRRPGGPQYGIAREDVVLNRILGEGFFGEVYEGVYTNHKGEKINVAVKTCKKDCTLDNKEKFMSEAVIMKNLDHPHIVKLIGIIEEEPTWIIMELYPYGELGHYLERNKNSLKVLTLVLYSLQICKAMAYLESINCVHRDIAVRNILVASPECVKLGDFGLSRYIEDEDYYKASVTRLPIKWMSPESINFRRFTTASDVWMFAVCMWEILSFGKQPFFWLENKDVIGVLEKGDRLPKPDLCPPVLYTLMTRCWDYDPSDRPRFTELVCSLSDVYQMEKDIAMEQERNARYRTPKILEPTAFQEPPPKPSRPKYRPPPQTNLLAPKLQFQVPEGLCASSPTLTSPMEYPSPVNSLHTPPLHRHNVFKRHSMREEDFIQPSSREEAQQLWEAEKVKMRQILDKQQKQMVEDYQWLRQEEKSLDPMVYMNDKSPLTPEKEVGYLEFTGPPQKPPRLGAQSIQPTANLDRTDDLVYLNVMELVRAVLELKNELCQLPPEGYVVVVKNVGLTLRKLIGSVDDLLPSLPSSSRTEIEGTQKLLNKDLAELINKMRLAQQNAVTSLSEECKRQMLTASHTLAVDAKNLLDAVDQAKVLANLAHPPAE
Method: as §1

AKT2 = AKT2 (Homo sapiens, UniProt P31751); assay: KINOMEscan; conditions: read-out: Percent Control
AKT2, sequence (P31751 whole entry): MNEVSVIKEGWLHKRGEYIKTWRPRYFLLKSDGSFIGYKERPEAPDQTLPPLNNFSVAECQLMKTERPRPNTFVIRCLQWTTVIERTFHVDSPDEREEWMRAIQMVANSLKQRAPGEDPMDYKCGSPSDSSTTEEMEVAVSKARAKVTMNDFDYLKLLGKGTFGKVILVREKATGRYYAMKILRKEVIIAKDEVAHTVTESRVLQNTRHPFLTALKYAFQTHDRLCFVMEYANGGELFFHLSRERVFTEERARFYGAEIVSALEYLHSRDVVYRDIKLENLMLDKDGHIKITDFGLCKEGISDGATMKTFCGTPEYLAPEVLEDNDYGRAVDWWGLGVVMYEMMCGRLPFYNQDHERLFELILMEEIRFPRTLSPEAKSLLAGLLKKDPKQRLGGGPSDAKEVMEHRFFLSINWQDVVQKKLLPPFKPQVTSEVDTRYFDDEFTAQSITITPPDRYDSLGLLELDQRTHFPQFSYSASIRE
Method: as §1

CDK4 = CDK4 (Homo sapiens, UniProt P11802); assay: KINOMEscan; conditions: read-out: Percent Control
CDK4, sequence (P11802 whole entry): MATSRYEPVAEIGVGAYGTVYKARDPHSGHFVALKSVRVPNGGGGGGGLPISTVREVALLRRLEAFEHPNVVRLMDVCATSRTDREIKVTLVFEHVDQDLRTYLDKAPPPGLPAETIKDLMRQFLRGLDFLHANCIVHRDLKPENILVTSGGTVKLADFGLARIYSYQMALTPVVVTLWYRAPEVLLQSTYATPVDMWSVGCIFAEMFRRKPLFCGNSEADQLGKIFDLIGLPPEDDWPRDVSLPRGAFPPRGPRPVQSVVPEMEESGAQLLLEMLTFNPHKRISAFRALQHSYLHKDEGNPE
Method: as §1

NDR1 = NDR1 (Homo sapiens, UniProt Q15208); assay: KINOMEscan; conditions: read-out: Percent Control
Method: as §1

ACVR1 = ACVR1 (Homo sapiens, UniProt Q04771); assay: KINOMEscan; conditions: read-out: Percent Control
Method: as §1

SNRK = SNRK (Homo sapiens, UniProt Q9NRH2); assay: KINOMEscan; conditions: read-out: Percent Control
SNRK, sequence (Q9NRH2 whole entry): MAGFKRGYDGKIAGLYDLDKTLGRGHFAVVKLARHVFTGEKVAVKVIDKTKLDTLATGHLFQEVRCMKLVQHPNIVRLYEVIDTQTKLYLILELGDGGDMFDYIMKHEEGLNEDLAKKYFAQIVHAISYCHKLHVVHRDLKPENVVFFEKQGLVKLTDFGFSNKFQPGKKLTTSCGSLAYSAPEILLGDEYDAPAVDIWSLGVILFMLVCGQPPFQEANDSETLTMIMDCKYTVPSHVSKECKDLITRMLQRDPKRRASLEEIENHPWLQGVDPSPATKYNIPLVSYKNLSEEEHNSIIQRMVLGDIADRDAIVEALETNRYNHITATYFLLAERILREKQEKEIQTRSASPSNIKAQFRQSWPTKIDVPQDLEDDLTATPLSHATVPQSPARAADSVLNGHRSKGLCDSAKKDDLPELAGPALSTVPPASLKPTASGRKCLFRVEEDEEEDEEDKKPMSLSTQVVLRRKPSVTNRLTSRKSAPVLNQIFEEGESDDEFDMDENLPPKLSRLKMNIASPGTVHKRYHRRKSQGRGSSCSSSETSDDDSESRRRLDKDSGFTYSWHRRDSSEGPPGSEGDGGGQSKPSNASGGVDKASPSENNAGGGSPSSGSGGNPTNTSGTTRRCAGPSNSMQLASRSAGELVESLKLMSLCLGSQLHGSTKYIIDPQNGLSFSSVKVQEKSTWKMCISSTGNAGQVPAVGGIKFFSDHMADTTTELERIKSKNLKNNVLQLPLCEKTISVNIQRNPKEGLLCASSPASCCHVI
Method: as §1

LCK = LCK (Homo sapiens, UniProt P06239); assay: KINOMEscan; conditions: read-out: Percent Control
Method: as §1

GRK3 = GRK3 (Homo sapiens, UniProt P35626); assay: KINOMEscan; conditions: read-out: Percent Control
Method: as §1

SYK = SYK (Homo sapiens, UniProt P43405); assay: KINOMEscan; conditions: read-out: Percent Control
Method: as §1

MAP3K4 = MAP3K4 (Homo sapiens, UniProt Q9Y6R4); assay: KINOMEscan; conditions: read-out: Percent Control
Method: as §1

PKN1 = PKN1 (Homo sapiens, UniProt Q16512); assay: KINOMEscan; conditions: read-out: Percent Control
Method: as §1

FGFR1 = FGFR1 (Homo sapiens, UniProt P11362); assay: KINOMEscan; conditions: read-out: Percent Control
Method: as §1

[1] = target: ABL1(E255K)-phosphorylated (Homo sapiens, UniProt P00519, E255K); assay: KINOMEscan; conditions: read-out: Percent Control
Method: as §1

AMPK-alpha2 = AMPK-alpha2 (Homo sapiens, UniProt P54646); assay: KINOMEscan; conditions: read-out: Percent Control
Method: as §1

DLK = DLK (Homo sapiens, UniProt Q12852); assay: KINOMEscan; conditions: read-out: Percent Control
Method: as §1

EGFR(E746-A750del) = EGFR(E746-A750del) (Homo sapiens, UniProt P00533, DEL746-750); assay: KINOMEscan; conditions: read-out: Percent Control
Method: as §1

FLT3-autoinhibited = FLT3-autoinhibited (Homo sapiens, UniProt P36888); assay: KINOMEscan; conditions: read-out: Percent Control
Method: as §1

PIP5K2B = PIP5K2B (Homo sapiens, UniProt P78356); assay: KINOMEscan; conditions: read-out: Percent Control
PIP5K2B, sequence (P78356 whole entry): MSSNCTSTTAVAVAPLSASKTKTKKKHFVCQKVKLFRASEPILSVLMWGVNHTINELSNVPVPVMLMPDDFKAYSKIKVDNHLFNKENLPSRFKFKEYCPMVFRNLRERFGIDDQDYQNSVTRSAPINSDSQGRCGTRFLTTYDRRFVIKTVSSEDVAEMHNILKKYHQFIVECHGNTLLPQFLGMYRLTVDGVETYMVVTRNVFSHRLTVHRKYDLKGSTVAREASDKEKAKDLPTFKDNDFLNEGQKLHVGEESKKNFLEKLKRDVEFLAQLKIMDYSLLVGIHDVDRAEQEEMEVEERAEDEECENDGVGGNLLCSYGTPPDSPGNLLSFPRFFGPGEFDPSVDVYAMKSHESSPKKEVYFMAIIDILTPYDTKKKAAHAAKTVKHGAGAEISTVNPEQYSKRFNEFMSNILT
Method: as §1

For `O=C1CCC(N2C(=O)c3cccc(NCCCCCCCCNC(=O)N4CC[C@H](NC5=Nc6cc(F)ccc6N(CC(F)F)c6ccc(Cl)cc65)C4)c3C2=O)C(=O)N1` (stereo partly drawn) [BJG-05-039, (3S)-3-((2-Chloro-5-(2,2-difluoroethyl)-8-fluoro-5H-dibenzo[b,e][1,4]diazepin-11-yl)amino)-N-(8-((2-(2,6-dioxopiperidin-3-yl)-1,3-dioxoisoindolin-4-yl)amino)octyl)pyrrolidine-1-carboxamide], the “Phosphorylation of ERK” value (ERK) was “inhibiting phosphorylation of ERK”, the remaining binding at 10 µM (GSK3A) was 50% and the remaining binding at 10 µM (CAMK2G) was 51%. The remaining binding at 10 µM (DRAK1) was 59%, the remaining binding at 10 µM (CDK2) was 69% and the remaining binding at 10 µM (EGFR(L858R)) was 74%. The remaining binding at 10 µM (SBK1) was 82%, the remaining binding at 10 µM (CDC2L2) was 84% and the remaining binding at 10 µM (PYK2) was 85%. For the same compound, the remaining binding at 10 µM (AKT2) was 86%, the remaining binding at 10 µM (CDK4) was 86% and the remaining binding at 10 µM (NDR1) was 86%. The remaining binding at 10 µM (ACVR1) was 89%, the remaining binding at 10 µM (SNRK) was 89% and the remaining binding at 10 µM (LCK) was 91%. It also gave a remaining binding at 10 µM (GRK3) of 92%, a remaining binding at 10 µM (SYK) of 92% and a remaining binding at 10 µM (MAP3K4) of 95%. It also gave a remaining binding at 10 µM (PKN1) of 95%, a remaining binding at 10 µM (FGFR1) of 97% and a remaining binding at 10 µM [1] of 100%. It also gave a remaining binding at 10 µM (AMPK-alpha2) of 100%, a remaining binding at 10 µM (DLK) of 100% and a remaining binding at 10 µM (EGFR(E746-A750del)) of 100%. For the same compound, the remaining binding at 10 µM (FLT3-autoinhibited) was 100% and the remaining binding at 10 µM (PIP5K2B) was 100%.
